Calls of active or inactive are those of the source. The rule behind the calls is not given here.
What was measured:
[1] = biological target: T1, Suppressor of tumorigenicity 14 protein (Homo sapiens) (UniProt Q9Y5Y6); experiment: Reversible inhibition of matriptase (unknown origin) using Boc-Gln-Ala-Arg-AMC as substrate after 15 to 60 mins by fluorescence assay
T1 sequence (whole entry): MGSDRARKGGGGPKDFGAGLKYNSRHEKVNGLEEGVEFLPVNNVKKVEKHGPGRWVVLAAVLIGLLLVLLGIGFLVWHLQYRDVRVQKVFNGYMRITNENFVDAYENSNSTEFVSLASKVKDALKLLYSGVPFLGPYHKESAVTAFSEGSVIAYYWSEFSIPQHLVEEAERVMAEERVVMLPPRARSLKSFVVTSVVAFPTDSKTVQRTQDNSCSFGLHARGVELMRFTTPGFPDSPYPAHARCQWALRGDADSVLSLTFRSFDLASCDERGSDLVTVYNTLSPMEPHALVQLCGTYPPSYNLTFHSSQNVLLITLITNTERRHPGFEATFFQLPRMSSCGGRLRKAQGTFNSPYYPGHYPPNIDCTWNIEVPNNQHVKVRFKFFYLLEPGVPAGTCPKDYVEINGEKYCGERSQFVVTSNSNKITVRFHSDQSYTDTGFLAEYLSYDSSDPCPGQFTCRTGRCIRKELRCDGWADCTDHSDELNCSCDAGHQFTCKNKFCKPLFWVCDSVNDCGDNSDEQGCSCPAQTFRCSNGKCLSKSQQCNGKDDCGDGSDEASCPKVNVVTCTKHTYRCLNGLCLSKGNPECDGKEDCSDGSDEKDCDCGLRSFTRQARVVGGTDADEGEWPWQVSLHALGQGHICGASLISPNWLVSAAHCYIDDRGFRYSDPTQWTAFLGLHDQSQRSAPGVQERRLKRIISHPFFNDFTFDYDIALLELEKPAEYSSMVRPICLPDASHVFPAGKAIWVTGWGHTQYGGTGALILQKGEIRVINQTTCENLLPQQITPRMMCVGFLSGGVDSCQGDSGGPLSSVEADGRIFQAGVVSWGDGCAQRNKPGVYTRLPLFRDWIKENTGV

[2] = biological target: T2, Kallikrein-14 (Homo sapiens) (UniProt Q9P0G3); experiment: Reversible inhibition of human kallikrein14 using Boc-Val-Pro-Arg-AMC as substrate after 15 to 60 mins by fluorescence assay
T2 sequence (whole entry): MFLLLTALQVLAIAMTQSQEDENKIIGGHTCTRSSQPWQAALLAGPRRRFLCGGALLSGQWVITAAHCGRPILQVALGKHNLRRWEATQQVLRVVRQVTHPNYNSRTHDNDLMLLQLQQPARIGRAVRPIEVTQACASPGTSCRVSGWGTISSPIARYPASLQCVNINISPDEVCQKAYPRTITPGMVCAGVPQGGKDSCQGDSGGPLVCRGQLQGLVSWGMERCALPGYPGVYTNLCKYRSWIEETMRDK

[3] = biological target: T3, Kallikrein-7 (Homo sapiens, UniProt P49862); experiment: Reversible inhibition of human kallikrein7 using Suc-Leu-Leu-Val-Tyr-AMC as substrate after 15 to 60 mins by fluorescence assay
Target sequence in this assay (P49862 30-253 limits assumed): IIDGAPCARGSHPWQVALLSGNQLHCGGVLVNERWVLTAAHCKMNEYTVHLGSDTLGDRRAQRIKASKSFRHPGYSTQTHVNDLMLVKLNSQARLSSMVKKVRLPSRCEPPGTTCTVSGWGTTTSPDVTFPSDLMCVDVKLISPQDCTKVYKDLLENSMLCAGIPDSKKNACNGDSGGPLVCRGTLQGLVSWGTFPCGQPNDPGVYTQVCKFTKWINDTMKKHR

[4] = biological target: Kallikrein-5 (Homo sapiens) (UniProt Q9Y337); experiment: Reversible inhibition of human kallikrein5 using Boc-Val-Pro-Arg-AMC as substrate after 15 to 60 mins by fluorescence assay
[5] = biological target: T1, Suppressor of tumorigenicity 14 protein (Homo sapiens); experiment: Inhibition of matriptase (unknown origin) using Boc-Gln-Ala-Arg-AMC as substrate at 50 uM after 15 mins by fluorescence assay
[6] = biological target: T2, Kallikrein-14 (Homo sapiens); experiment: Inhibition of human kallikrein14 using Boc-Val-Pro-Arg-AMC as substrate at 50 uM after 15 mins by fluorescence assay
[7] = biological target: T3, Kallikrein-7; experiment: Inhibition of human kallikrein7 using Suc-Leu-Leu-Val-Tyr-AMC as substrate at 50 uM after 15 mins by fluorescence assay
Target sequence in this assay (P49862 30-253 limits assumed): as above

[8] = biological target: Kallikrein-5 (Homo sapiens) (UniProt Q9Y337); experiment: Inhibition of human kallikrein5 using Boc-Val-Pro-Arg-AMC as substrate at 50 uM after 15 mins by fluorescence assay
[9] = Cytotoxicity against human keratinocytes assessed as cell viability at 1 uM after 24 to 48 hrs by neutral red assay; assay type: cell-based; conditions: keratinocyte
[10] = Cytotoxicity against human keratinocytes assessed as cell viability at 10 uM after 24 to 48 hrs by neutral red assay; assay type: cell-based, Keratinocyte
[11] = biological target: T3, Kallikrein-7; experiment: Ratio of Ki for mixed-type inhibition of human kallikrein7 assessed as enzyme-substrate-inhibitor complex to Ki for mixed-type inhibition of human kallikrein7 assessed as enzyme-inhibitor complex
Target sequence in this assay (P49862 30-253 limits assumed): as above

[12] = biological target: T3, Kallikrein-7; experiment: Mixed-type inhibition of human kallikrein7 using Suc-Leu-Leu-Val-Tyr-AMC as substrate assessed as enzyme-substrate-inhibitor complex after 15 to 60 mins by Lineweaver-Burk/Eadie-Hofstee plot analysis
Target sequence in this assay (P49862 whole entry): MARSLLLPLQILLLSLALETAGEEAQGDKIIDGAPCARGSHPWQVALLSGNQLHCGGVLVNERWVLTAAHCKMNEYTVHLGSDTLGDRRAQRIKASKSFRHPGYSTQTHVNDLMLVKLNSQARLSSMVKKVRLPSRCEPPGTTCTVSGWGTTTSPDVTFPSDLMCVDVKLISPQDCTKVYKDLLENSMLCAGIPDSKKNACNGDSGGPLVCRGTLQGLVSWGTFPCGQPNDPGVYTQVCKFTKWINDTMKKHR

[13] = biological target: T3, Kallikrein-7; experiment: Mixed-type inhibition of human kallikrein7 using Suc-Leu-Leu-Val-Tyr-AMC as substrate assessed as enzyme-inhibitor complex after 15 to 60 mins by Lineweaver-Burk/Eadie-Hofstee plot analysis
Target sequence in this assay (P49862 whole entry): as above

[14] = biological target: T4, Kallikrein-5 (Homo sapiens, UniProt Q9Y337); experiment: Competitive inhibition of human kallikrein5 using Boc-Val-Pro-Arg-AMC as substrate after 15 to 60 mins by Lineweaver-Burk/Eadie-Hofstee plot analysis
T4 sequence (Q9Y337 whole entry): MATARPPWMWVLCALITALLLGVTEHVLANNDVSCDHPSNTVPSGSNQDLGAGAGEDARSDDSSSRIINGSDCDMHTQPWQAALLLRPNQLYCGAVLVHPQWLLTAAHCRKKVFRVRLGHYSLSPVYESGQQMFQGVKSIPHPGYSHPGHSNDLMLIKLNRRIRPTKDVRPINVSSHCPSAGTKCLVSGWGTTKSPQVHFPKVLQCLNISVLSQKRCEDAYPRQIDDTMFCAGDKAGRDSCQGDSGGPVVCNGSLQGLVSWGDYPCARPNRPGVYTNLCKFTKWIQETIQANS

[15] = biological target: T5, Suppressor of tumorigenicity 14 protein (Homo sapiens, UniProt Q9Y5Y6); experiment: Inhibition of matriptase (unknown origin) using Boc-Gln-Ala-Arg-AMC as substrate after 15 mins by fluorescence assay
T5 sequence (Q9Y5Y6 whole entry): T1 sequence (whole entry)

[16] = biological target: T6, Kallikrein-14 (Homo sapiens, UniProt Q9P0G3); experiment: Inhibition of human kallikrein14 using Boc-Val-Pro-Arg-AMC as substrate after 15 mins by fluorescence assay
T6 sequence (Q9P0G3 whole entry): T2 sequence (whole entry)

[17] = biological target: T3, Kallikrein-7; experiment: Inhibition of human kallikrein7 using Suc-Leu-Leu-Val-Tyr-AMC as substrate after 15 mins by fluorescence assay
Target sequence in this assay (P49862 whole entry): as the sequence (P49862 whole entry) above

[18] = biological target: T4, Kallikrein-5; experiment: Inhibition of human kallikrein5 using Boc-Val-Pro-Arg-AMC as substrate after 15 mins by fluorescence assay

inhibition [1] | inhibition [2] | inhibition [3] | inhibition [4] | inhibition [5] [%] | inhibition [6] [%] | inhibition [7] [%] | inhibition [8] [%] | Ratio Ki [11] | Ki [12] [µM] | Ki [13] [µM] | Ki [14] [µM] | IC50 [15] [µM] | IC50 [16] [µM] | IC50 [17] [µM] | IC50 [18] [µM] | SMILES | Activity [9] | Activity ([10]; keratinocyte, 10 µM) | viability at 10 µM ([10]; keratinocytes, read-out: Activity) [%]
Active | Active | Active | Active | < 30 | < 30 | < 30 | < 30 | – | – | – | – | – | – | – | – | CCOc1cccc(NC(=O)/C(C#N)=C\c2ccc(O)cc2)c1 | – | – | –
Active | Active | Active | Active | < 30 | < 30 | < 30 | < 30 | – | – | – | – | – | – | – | – | COc1cc(/C=C(/C#N)c2nc3ccccc3[nH]2)ccc1OCc1ccccc1 | – | – | –
Active | Active | Active | Active | < 30 | < 30 | < 30 | < 30 | – | – | – | – | – | – | – | – | O=c1c2ccccc2nc(CSc2[nH]cnc3ncnc2-3)n1-c1cccc(C(F)(F)F)c1 | – | – | –
Active | Active | Active | Active | – | – | < 30 | < 30 | – | – | – | – | 138 | 122 | – | – | COc1ccc(/C=C/C(=O)c2ccc(O)cc2)cc1COc1ccc(Cl)cc1 | – | – | 30

More lines, now with the values behind:

SMILES | inhibition [1] | inhibition [2] | inhibition [3] | inhibition [4] | inhibition [5] [%] | inhibition [6] [%] | inhibition [7] [%] | inhibition [8] [%] | Ratio Ki [11] | Ki [12] [µM] | Ki [13] [µM] | Ki [14] [µM] | IC50 [15] [µM] | IC50 [16] [µM] | IC50 [17] [µM] | IC50 [18] [µM] | Activity [9] | Activity ([10]; keratinocyte, 10 µM) | viability at 10 µM ([10]; keratinocytes, read-out: Activity) [%]
CCOc1cccc(NC(=O)/C(C#N)=C\c2ccc(O)c(OC)c2)c1 | Active | Active | Active | Active | < 30 | < 30 | < 30 | < 30 | – | – | – | – | – | – | – | – | – | – | –
O=c1c2ccccc2nc(CSc2ccccn2)n1-c1cccc(C(F)(F)F)c1 | Active | Active | Active | Active | < 30 | < 30 | < 30 | < 30 | – | – | – | – | – | – | – | – | – | – | –
CCOc1cc(/C=C(/C#N)C(=O)Nc2ccc(O)cc2)ccc1OC | Active | Active | Active | Active | < 30 | < 30 | < 30 | < 30 | – | – | – | – | – | – | – | – | – | – | –
COc1ccc(/C=C2/SC(=O)N(CNc3cc(F)ccc3C)C2=O)cc1OC | Active | Active | Active | Active | – | – | – | – | 2 | 166 | 83 | 95 | 103 | 112 | 106 | 117 | Non-toxic | Non-toxic | –
COc1cc(/C=C(/C#N)C(=O)Nc2ccc(O)cc2)ccc1O | Active | Active | Active | Active | – | – | – | – | 2 | 129 | 70 | 112 | 111 | 106 | 107 | 131 | – | – | –
COc1ccc(NC(=O)/C(C#N)=C\c2ccc(O)c(OC)c2)cc1 | Active | Active | Active | Active | – | – | – | – | 2 | 164 | 72 | 100 | 120 | 99 | 90 | 127 | – | – | –
CCOc1ccc(/C=C(/C#N)C(=O)Nc2ccc(O)cc2)cc1OC | Active | Active | Active | Active | < 30 | < 30 | < 30 | < 30 | – | – | – | – | – | – | – | – | – | – | –

Reference: ChEMBL document CHEMBL3098059, “Identification by in silico and in vitro screenings of small organic molecules acting as reversible inhibitors of kallikreins” (Eur J Med Chem, 2013)
